Source: ChEMBL document CHEMBL5244211, “Current anti-diabetic agents and their molecular targets: A review” (Eur J Med Chem, 2018)

What was measured:
Homo sapiens [1] = species on record: Homo sapiens; experiment: Selectivity ratio of IC50 for inhibition of TC-PTP (unknown origin) to IC50 for inhibition of PTP1B (unknown origin)
[2] = target: T1, Tyrosine-protein phosphatase non-receptor type 1 (Homo sapiens, UniProt P18031); experiment: Inhibition of PTP1B (unknown origin) using pNPP as substrate for 2 mins by spectroscopic analysis
T1 sequence (P18031 whole entry): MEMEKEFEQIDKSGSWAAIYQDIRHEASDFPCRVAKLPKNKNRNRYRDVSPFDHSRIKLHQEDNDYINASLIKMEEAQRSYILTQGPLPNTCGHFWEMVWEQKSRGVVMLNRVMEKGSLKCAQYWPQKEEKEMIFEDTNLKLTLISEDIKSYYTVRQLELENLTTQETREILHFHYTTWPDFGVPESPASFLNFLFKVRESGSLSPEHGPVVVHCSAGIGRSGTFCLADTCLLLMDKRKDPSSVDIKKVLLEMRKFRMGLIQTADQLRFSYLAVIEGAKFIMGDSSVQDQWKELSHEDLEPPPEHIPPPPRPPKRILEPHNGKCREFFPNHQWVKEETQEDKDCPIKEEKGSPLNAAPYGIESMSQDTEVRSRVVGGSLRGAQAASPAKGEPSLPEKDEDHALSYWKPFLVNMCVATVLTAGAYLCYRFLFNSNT

[3] = target: T1, Tyrosine-protein phosphatase non-receptor type 1; experiment: Competitive inhibition of PTP1B (unknown origin) assessed as inhibition constant using pNPP as substrate by Michaelis-Menten based analysis
[4] = target: T1, Tyrosine-protein phosphatase non-receptor type 1; experiment: Inhibition of PTP1B (unknown origin)
[5] = target: T2, Fructose-1,6-bisphosphatase 1 (Rattus norvegicus) (UniProt P19112); experiment: Inhibition of FBPase in rat Primary hepatocyte assessed as reduction in glucose production at 160 uM; format: cell-based
T2 sequence (whole entry): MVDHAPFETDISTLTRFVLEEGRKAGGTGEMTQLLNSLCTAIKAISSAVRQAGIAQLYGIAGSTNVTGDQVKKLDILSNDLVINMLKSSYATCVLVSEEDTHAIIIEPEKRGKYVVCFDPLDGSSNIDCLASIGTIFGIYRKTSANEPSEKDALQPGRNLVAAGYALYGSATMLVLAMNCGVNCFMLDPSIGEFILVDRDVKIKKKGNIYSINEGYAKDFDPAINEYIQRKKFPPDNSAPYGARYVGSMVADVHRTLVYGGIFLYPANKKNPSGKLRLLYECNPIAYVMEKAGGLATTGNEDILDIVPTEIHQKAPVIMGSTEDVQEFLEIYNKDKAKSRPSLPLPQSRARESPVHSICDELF

[6] = target: T3, Fructose-1,6-bisphosphatase 1 (Rattus norvegicus, UniProt P19112); experiment: Inhibition of FBPase in rat Primary hepatocyte assessed as reduction in glucose production; format: cell-based
T3 sequence (P19112 whole entry): T2 sequence (whole entry)

[7] = Inhibition of calf lens ALR2 using glyceraldehyde as substrate incubated for 5 mins in presence of NADPH by UV-spectrophotometric analysis; format: tissue-based, Bos taurus
Glucagon receptor = Glucagon receptor (Homo sapiens, UniProt P47871); experiment: Inhibition of human GCGR receptor
Glucagon receptor, sequence (P47871 whole entry): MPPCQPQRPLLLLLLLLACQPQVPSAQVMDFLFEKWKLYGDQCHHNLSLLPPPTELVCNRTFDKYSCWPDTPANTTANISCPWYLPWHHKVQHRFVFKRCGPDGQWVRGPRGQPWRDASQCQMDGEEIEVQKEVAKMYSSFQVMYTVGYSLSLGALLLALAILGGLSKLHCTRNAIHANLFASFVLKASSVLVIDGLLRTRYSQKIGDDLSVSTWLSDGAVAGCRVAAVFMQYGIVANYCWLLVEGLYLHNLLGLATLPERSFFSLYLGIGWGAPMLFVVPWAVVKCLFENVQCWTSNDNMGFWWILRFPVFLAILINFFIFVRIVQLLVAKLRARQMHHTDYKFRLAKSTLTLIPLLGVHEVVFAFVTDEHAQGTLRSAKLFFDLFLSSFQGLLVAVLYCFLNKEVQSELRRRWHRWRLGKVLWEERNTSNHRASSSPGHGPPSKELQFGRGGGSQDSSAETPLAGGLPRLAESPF

Dipeptidyl peptidase 4 [8] = target: T4, Dipeptidyl peptidase 4 (Homo sapiens, UniProt P27487); experiment: Inhibition of DPP4 (unknown origin)
T4 sequence (P27487 whole entry): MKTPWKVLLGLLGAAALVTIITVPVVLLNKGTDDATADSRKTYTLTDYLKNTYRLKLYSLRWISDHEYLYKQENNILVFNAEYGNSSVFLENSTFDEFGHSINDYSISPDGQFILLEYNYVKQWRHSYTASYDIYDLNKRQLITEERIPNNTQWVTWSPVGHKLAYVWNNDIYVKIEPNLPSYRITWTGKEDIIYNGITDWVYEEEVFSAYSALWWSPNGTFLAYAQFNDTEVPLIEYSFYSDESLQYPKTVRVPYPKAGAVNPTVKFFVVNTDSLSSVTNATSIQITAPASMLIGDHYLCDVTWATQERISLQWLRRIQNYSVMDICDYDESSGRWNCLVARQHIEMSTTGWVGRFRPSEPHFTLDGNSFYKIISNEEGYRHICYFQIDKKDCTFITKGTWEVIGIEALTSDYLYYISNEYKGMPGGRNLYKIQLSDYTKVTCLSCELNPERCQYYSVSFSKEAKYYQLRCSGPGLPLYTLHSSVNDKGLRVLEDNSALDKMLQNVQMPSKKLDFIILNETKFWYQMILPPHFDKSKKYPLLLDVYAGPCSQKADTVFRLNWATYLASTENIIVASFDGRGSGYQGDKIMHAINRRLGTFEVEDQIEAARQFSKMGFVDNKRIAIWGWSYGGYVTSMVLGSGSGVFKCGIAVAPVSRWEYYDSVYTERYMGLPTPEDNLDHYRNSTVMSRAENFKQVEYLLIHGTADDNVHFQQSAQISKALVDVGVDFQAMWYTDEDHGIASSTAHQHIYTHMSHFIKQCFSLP

[9] = target: T5, Tyrosine-protein phosphatase non-receptor type 2 (Homo sapiens, UniProt P17706); experiment: Inhibition of TC-PTP (unknown origin) using pNPP as substrate incubated for 5 mins by absorbance based analysis
T5 sequence (P17706 whole entry): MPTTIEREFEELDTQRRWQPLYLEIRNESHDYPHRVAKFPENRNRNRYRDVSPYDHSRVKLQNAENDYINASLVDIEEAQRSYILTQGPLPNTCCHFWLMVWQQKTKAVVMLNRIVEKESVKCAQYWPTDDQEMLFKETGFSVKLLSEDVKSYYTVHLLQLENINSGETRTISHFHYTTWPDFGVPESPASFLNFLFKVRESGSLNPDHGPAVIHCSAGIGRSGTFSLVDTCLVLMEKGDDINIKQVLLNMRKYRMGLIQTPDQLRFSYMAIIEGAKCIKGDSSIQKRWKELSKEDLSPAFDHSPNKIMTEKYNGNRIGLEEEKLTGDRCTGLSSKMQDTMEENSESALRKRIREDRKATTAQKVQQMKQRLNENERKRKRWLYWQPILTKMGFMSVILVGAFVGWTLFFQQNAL

Homo sapiens [10] = species on record: Homo sapiens; experiment: Selectivity ratio of IC50 for inhibition of PTP1B (unknown origin) to IC50 for inhibition of TC-PTP (unknown origin)
Dipeptidyl peptidase 4 [11] = target: T4, Dipeptidyl peptidase 4; experiment: Inhibition of human recombinant DPP4 using H-Gly-Pro-AMC as substrate incubated for 10 mins by microplate reader analysis
[12] = Inhibition of bovine kidney ALR1 in presence of NADPH by UV spectrophotometric analysis; format: tissue-based, Bos taurus
[13] = target: T6, Free fatty acid receptor 4 (Homo sapiens, UniProt Q5NUL3); experiment: Agonist activity at FFA4 (unknown origin) expressed in CHO-K1 cells by BRET assay; format: cell-based
T6 sequence (Q5NUL3 whole entry): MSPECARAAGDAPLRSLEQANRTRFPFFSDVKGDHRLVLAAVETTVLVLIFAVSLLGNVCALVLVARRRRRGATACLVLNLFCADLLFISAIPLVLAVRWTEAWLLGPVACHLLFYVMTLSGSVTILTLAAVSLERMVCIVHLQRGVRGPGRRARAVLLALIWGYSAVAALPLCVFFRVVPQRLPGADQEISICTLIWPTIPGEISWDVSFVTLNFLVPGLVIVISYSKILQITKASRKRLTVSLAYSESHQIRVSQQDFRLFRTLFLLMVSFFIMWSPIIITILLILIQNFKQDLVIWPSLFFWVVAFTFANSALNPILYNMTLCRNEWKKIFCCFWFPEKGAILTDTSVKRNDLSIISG

Dipeptidyl peptidase 4 [14] = target: T4, Dipeptidyl peptidase 4; experiment: Inhibition of DPP4 (unknown origin) using Gly-Pro-AMC as substrate incubated for 20 mins by spectroscopic analysis
[15] = target: T1, Tyrosine-protein phosphatase non-receptor type 1; experiment: Inhibition of human GST-tagged PTP1B expressed in Escherichia coli using pNPP as substrate by spectroscopic analysis
[16] = target: Free fatty acid receptor 1 (Homo sapiens, UniProt O14842); experiment: Agonist activity at human GPR40 expressed in HEK293 cells incubated for 18 to 24 hrs by HTRF assay; format: cell-based
Free fatty acid receptor 1, sequence (O14842 whole entry): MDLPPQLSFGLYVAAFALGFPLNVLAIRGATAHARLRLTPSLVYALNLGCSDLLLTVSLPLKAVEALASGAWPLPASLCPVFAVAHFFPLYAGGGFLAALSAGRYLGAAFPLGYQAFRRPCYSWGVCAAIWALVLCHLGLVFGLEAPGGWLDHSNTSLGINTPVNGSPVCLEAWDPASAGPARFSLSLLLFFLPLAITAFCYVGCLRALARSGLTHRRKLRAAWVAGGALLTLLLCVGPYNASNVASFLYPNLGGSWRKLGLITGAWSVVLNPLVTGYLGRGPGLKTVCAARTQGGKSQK

[17] = target: T7, Glucose-dependent insulinotropic receptor (Homo sapiens, UniProt Q8TDV5); experiment: Agonist activity at human GPR119 expressed in HEK293S cells assessed as increase in intracellular cAMP level incubated for 45 mins by HTRF analysis; format: cell-based
T7 sequence (Q8TDV5 whole entry): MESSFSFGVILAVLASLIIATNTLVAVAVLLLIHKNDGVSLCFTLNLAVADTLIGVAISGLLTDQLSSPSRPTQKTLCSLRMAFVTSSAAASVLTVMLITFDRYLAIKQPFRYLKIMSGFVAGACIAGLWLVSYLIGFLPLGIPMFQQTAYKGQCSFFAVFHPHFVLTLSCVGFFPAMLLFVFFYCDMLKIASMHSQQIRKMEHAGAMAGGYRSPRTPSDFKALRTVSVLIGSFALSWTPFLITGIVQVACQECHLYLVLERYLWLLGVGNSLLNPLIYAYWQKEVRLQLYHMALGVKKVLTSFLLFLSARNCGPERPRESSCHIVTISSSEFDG

Structure (SMILES): C[C@H](CCC(=O)O)[C@H]1CCC2C3CC=C4C(C)(C)c5c(cnn5-c5ccc(F)cc5)C[C@]4(C)C3CC[C@@]21C (some centres undefined)
- Ratio IC50 (Homo sapiens [1]): 11
- IC50 [2]: 420 nM
- Ki [3]: 260 nM

Structure (SMILES): Oc1cc(Cc2cc(O)c(Br)c(Br)c2Br)c(Br)c(Br)c1O
- IC50 [4]: 2.4 µM

Structure (SMILES): Cc1ccc(-c2nnc(-c3cccc(NC(=O)CCCCc4nnn[nH]4)c3)o2)cc1
- inhibition [5]: 42%
- IC50 [6]: 167 µM

Structure (SMILES): Cc1ccc(N2C(=O)/C(=C/c3cn(-c4ccccc4)nc3-c3ccc([N+](=O)[O-])cc3)SC2=S)cc1
- IC50 [7]: 2340 nM

Structure (SMILES): Cc1cc(O[C@@H](CCC(F)(F)F)c2ccc(C(=O)NCCC(=O)O)cc2)cc(C)c1-c1ccc(C(C)(C)C)cc1 [ADOMEGLIVANT]
- Ki (Glucagon receptor): 6.6 nM

Structure (SMILES): CC#CCn1c(N2CCC[C@@H](N)C2)cc(=O)n(Cc2nc(C)c3cc(C)ccc3n2)c1=O
- IC50 (Dipeptidyl peptidase 4 [8]): 5.78 nM

Structure (SMILES): O=C(c1cccc(CN2CCCN(Cc3cccc(C(=O)C(F)(F)P(=O)(O)O)c3)CCN(Cc3cccc(C(=O)C(F)(F)P(=O)(O)O)c3)CCCN(Cc3cccc(C(=O)C(F)(F)P(=O)(O)O)c3)CC2)c1)C(F)(F)P(=O)(O)O
- IC50 [9]: 75 nM
- Ratio IC50 (Homo sapiens [10]): 14

Structure (SMILES): NNc1nc(NN)nc(N2C(=O)CSC2=O)n1
- IC50 (Dipeptidyl peptidase 4 [11]): 6.25 µM

Structure (SMILES): CCCC(CCC)C(=O)O [VALPROIC ACID]
- IC50 [12]: 57.4 µM

Structure (SMILES): O=c1c2cc(O)c(O)cc2oc2cc(O)cc(O)c12
- IC50 [4]: 9.2 µM

Structure (SMILES): O=C(O)CCCc1ccc(OCC2=C(c3ccc(C4CC4)cc3)CCCC2)cc1
- EC50 [13]: 50 nM

Structure (SMILES): O=C(CNc1nc(Nc2ccc(S(=O)(=O)Nc3nccs3)cc2)nc(N2CCOCC2)n1)Nc1ccc(F)cc1
- IC50 (Dipeptidyl peptidase 4 [14]): 2.32 nM

Structure (SMILES): COc1cc(C(=O)c2c(CBr)cc(OC)c(OC)c2Br)c(Br)c(Br)c1OC
- IC50 [15]: 2070 nM

Structure (SMILES): COc1cc(N2CCC(Oc3ccc(N4N=C(C(F)(F)F)[C@@H](C)C4CC(=O)O)cc3)[C@H](N)C2)c(Cl)cn1 (some centres undefined)
- EC50 [16]: 71 nM

Structure (SMILES): CSc1ccc(COc2ccc(-c3ncc(C)c(N4CCN(c5ncc(OCC=C(C)C)cn5)CC4)n3)cc2)cc1
- EC50 [17]: 24 nM
